Laboratory results published in paper PMC6270420, “Antibacterial Activity of Salicylanilide 4-(Trifluoromethyl)benzoates” (Molecules, 2013).
Values after ≈ are worked out from the molar mass of the structure shown. Like-named read-outs stand apart in the source and are kept apart here.

Assays:
[1] = tested on: Gram-positive cocci including MRSA; assay: Antibacterial microdilution, summary for Gram-positive cocci; type: cell-based; settings: Staphylococcus aureus, read-out: MICs against Gram-positive cocci
Description: (§1) The in vitro antibacterial activity was assayed against eight Gram-positive and Gram-negative strains: Staphylococcus aureus CCM 4516/08, methicillin-resistant Staphylococcus aureus H 5996/08 (MRSA), Staphylococcus epidermidis H 6966/08, Enterococcus sp. J 14365/08; Escherichia coli CCM 4517, Klebsiella pneumoniae D 11750/08, ESBL-positive Klebsiella pneumoniae J 14368/08, and Pseudomonas aeruginosa CCM 1961.
(§2) The microdilution broth method modified according to standard M07-A07 in Mueller-Hinton broth (HiMedia Laboratories, Mumbai, India) adjusted to pH 7.4 (±0.2) was used. The tested compounds were dissolved in DMSO to the final concentrations ranging from […]. Benzylpenicillin (penicillin G) was used as a comparative drug. Bacterial inoculum in sterile water was prepared to match 0.5 McFarland scale ([…]). The minimum inhibitory concentrations were assayed as 90% (IC90) or higher reduction of growth when compared to the control. The determination of results was performed visually and spectrophotometrically (at 540 nm). The values of MICs were determined after 24 and 48 h of incubation in the darkness at 35 °C (±0.1) in a humid atmosphere.

[2] = tested on: Mycobacterium tuberculosis 331/88 (H37Rv); assay: Antimycobacterial MIC micromethod, Šula's medium; type: cell-based; settings: read-out: MIC Mtb. 331/88
HepG2 cells = assay: Cytotoxicity evaluation (CellTiter 96 MTS); type: cell-based, human; settings: Homo sapiens, HepG2; 24 h, cytotoxicity; read-out: IC50 HepG2
Description: Seven esters and their parent salicylanilides with the most robust antimicrobial activity were tested for cytotoxicity in the human hepatocellular liver carcinoma cell line HepG2 (passages 21–24; ECACC, Salisbury, UK) using a standard colorimetric method measuring a tetrazolium salt reduction (CellTiter(R) 96 AQueous One Solution Assay, Promega G3580, Madison, WI, USA).
The cells were routinely cultured in Minimum Essentials Eagle Medium (Sigma-Aldrich, Darmstadt, Germany) supplemented with 10% foetal bovine serum (PAA; Biotech, Prague, Czech Republic), 1% of L-glutamine solution (Sigma-Aldrich), and non-essential amino acids solution (Sigma-Aldrich) in a humidified atmosphere containing 5% CO2 at 37 °C. For subculturing, the cells were harvested after trypsin/EDTA (Sigma-Aldrich) treatment at 37 °C. The cells treated with the tested substances were used as experimental groups. Untreated HepG2 cells were used as control groups.
The cells were seeded in density 1 × 10^4 cells per well in a 96-well plate with microscopic control. Next day, the cells were treated with each of the tested substances. […] The most of the tested compounds were prepared in incubation concentrations of 0.01–20 µM in triplicates. 4-(Trifluoromethyl)benzoic acid was applied in the concentrations of 10–4,000 µM in triplicates. The following types of controls were included: determination of 100% viability and 0% viability (the cells treated by 10% DMSO), no cell control and vehiculum controls. These checking samples were prepared in triplicates.
The treated cells were incubated together with controls at 37 °C for 24 h in 5% CO2 atmosphere. After this time reagent from the kit CellTiter 96 AQueous One Solution Cell Proliferation Assay was added. The CellTiter 96 assay is based on the reduction of tetrazolium salt MTS [3-(4,5-dimethylthiazol-2-yl)-5-(3-carboxymethoxyphenyl)-2-(4-sulfophenyl)-2H-tetrazolium] to water-soluble formazan dye by metabolically active cells. The reduction of the reagent is attributed to availability of NADH or NADPH. The decline in levels of these metabolically important compounds in the cell causes that the production of formazan is reduced. The tested plate was incubated for 2 h at 37 °C and 5% CO2 and after this time, the absorbance was recorded at 490 nm using a 96-well plate reader (TECAN, Infinite M200, Grödig, Austria).
The results were expressed as inhibitory concentration which is necessary to inhibit cell viability to 50% from the maximal (control) viability (IC50). A standard toxicological parameter IC50 was calculated in each of the tested substances using GraphPad Prism software (version 5.02; GraphPad Software Inc., San Diego, CA, USA).

[3] = tested on: Mycobacterium avium 330/88; assay: Antimycobacterial MIC micromethod; type: cell-based
[4] = tested on: Staphylococcus aureus CCM 4516/08; assay: Antibacterial microdilution broth method; type: cell-based; settings: read-out: MIC/IC90 S. aureus CCM 4516/08
Description: as §1, §2

[5] = tested on: Escherichia coli CCM 4517; assay: Antibacterial microdilution broth method; type: cell-based
Description: as §1, §2

[6] = tested on: Enterococcus sp. J 14365/08; assay: Antibacterial microdilution broth method; type: cell-based; settings: read-out: MIC/IC90 Enterococcus sp. J 14365/08
Description: as §1, §2

[7] = tested on: methicillin-resistant Staphylococcus aureus H 5996/08 (MRSA); assay: Antibacterial microdilution broth method; type: cell-based; settings: read-out: MIC/IC90 MRSA H 5996/08
Description: as §1, §2

[8] = tested on: Staphylococcus epidermidis H 6966/08; assay: Antibacterial microdilution broth method; type: cell-based; settings: read-out: MIC/IC90 S. epidermidis H 6966/08
Description: as §1, §2

[9] = tested on: M. kansasii 6509/96 (clinically isolated strain); assay: Antimycobacterial MIC micromethod; type: cell-based; settings: Mycobacterium kansasii, read-out: MIC M. kansasii 6509/96
[10] = molecular target: T1, mycobacterial isocitrate lyase (ICL1, Rv0467) (Mycobacterium tuberculosis, UniProt P9WKK7); assay: Isocitrate lyase inhibition assay (ICL1); type: biochemical, Mycobacterium tuberculosis H37Rv; settings: 10 μmol/L; read-out: % ICL inhibition at 10 μmol/L (± standard deviation)
T1 construct: His tag (from pET-28b(+)); made in house; host or cells: E. coli BL21(DE3), pET-28b(+) plasmid
T1 sequence (P9WKK7 1-428): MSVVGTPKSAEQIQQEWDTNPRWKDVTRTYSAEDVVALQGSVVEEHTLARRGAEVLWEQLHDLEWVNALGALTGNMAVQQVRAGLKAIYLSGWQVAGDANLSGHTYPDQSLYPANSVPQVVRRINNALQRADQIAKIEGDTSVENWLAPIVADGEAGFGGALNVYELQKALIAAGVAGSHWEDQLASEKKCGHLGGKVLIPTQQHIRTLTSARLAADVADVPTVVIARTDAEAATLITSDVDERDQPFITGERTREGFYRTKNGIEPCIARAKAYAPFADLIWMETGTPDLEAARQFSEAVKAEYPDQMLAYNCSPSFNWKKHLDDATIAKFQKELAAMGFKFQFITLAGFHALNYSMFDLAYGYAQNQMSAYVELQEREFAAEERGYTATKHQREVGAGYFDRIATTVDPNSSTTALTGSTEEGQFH

[11] = tested on: Mycobacterium kansasii 235/80; assay: Antimycobacterial MIC micromethod; type: cell-based; settings: read-out: MIC M. kansasii 235/80
Mtb. Praha 131 (XDR-TB) = assay: microbe, parasite or virus in culture; type: cell-based; settings: Mycobacterium tuberculosis, read-out: MIC Mtb. Praha 131 (XDR-TB)
Mtb. Praha 1 = assay: microbe, parasite or virus in culture; type: cell-based; settings: Mycobacterium tuberculosis, read-out: MIC Mtb. Praha 1
Mtb. 9449/2006 = assay: microbe, parasite or virus in culture; type: cell-based; settings: Mycobacterium tuberculosis, read-out: MIC Mtb. 9449/2006
Mtb. 7357/1988 = assay: microbe, parasite or virus in culture; type: cell-based; settings: Mycobacterium tuberculosis, read-out: MIC Mtb. 7357/1988
Mtb. 53/2009 = assay: microbe, parasite or virus in culture; type: cell-based; settings: Mycobacterium tuberculosis, read-out: MIC Mtb. 53/2009
Mtb. 234/2005 = assay: microbe, parasite or virus in culture; type: cell-based; settings: Mycobacterium tuberculosis, read-out: MIC Mtb. 234/2005
[12] = CCM4517, 24 h, read-out: MIC/IC90 E. coli CCM 4517
[13] = CCM4517, 48 h, read-out: MIC/IC90 E. coli CCM 4517

Row | SMILES | MIC [1] | MIC ([2]; 336 h, 14 d) | MIC ([2]; 504 h, 21 d) | MIC ([3]; 330/88, 336 h, 14 d) | MIC ([3]; 330/88, 504 h, 21 d) | MIC ([4]; CCM4516, 24 h) | MIC ([4]; CCM4516, 48 h) | MIC [5, 12] | MIC [5, 13] | MIC ([6]; SP.J14365/08, 24 h) | MIC ([6]; SP.J14365/08, 48 h) | MIC ([7]; 24 h) | MIC ([7]; 48 h) | MIC ([8]; H6966/08, 24 h) | MIC ([8]; H6966/08, 48 h) | MIC ([9]; 168 h, 7 d) | MIC ([9]; 336 h, 14 d) | MIC ([9]; 504 h, 21 d) | inhibition at 10 µM [10] | MIC ([11]; 235/80, 168 h, 7 d) | other results
1 | O=C(Oc1cc(Cl)ccc1C(=O)Nc1ccc(C(F)(F)F)cc1)c1ccc(C(F)(F)F)cc1 [1p] | < 1 µM | 2 µM (≈ 0.976 µg/mL) | 2 µM (≈ 0.976 µg/mL) | 2 µM (≈ 0.976 µg/mL) | 8 µM (≈ 3.9 µg/mL) | 0.49 µM (≈ 0.239 µg/mL) | 0.98 µM (≈ 0.478 µg/mL) | 31.2 µM (≈ 15.2 µg/mL) | 250 µM (≈ 122 µg/mL) | 0.49 µM (≈ 0.239 µg/mL) | 3.9 µM (≈ 1.9 µg/mL) | 0.49 µM (≈ 0.239 µg/mL) | 0.98 µM (≈ 0.478 µg/mL) | 0.49 µM (≈ 0.239 µg/mL) | 0.98 µM (≈ 0.478 µg/mL) | 1 µM (≈ 0.488 µg/mL) | 4 µM (≈ 1.95 µg/mL) | 4 µM (≈ 1.95 µg/mL) | 17 ± 2.3% | 2 µM (≈ 0.976 µg/mL) | IC50 (HepG2 cells): 1.77 µM; MIC ([5]; CCM4517, time not stated, read-out: MIC E. coli (partial susceptibility)): 31.2 µM (≈ 15.2 µg/mL); MIC ([11]; 235/80, 336 h, 14 d): 2 µM (≈ 0.976 µg/mL); MIC ([11]; 235/80, 504 h, 21 d): 4 µM (≈ 1.95 µg/mL)
2 | O=C(Oc1cc(Cl)ccc1C(=O)Nc1cccc(Cl)c1)c1ccc(C(F)(F)F)cc1 [1b] | < 1 µM | 4 µM (≈ 1.82 µg/mL) | 4 µM (≈ 1.82 µg/mL) | 8 µM (≈ 3.63 µg/mL) | 8 µM (≈ 3.63 µg/mL) | 0.98 µM (≈ 0.445 µg/mL) | 1.95 µM (≈ 0.886 µg/mL) | > 250 µM | > 250 µM | 7.81 µM (≈ 3.55 µg/mL) | 15.6 µM (≈ 7.1 µg/mL) | 0.98 µM (≈ 0.445 µg/mL) | 1.95 µM (≈ 0.886 µg/mL) | 0.98 µM (≈ 0.445 µg/mL) | 1.95 µM (≈ 0.886 µg/mL) | 2 µM (≈ 0.908 µg/mL) | 8 µM (≈ 3.63 µg/mL) | 8 µM (≈ 3.63 µg/mL) | 13 ± 1.7% | 1 µM (≈ 0.454 µg/mL) | MIC (Mtb. Praha 131 (XDR-TB); 336 h): 8 µM (≈ 3.63 µg/mL); MIC (Mtb. Praha 131 (XDR-TB); 504 h): 8 µM (≈ 3.63 µg/mL); MIC (Mtb. Praha 1; 336 h): 4 µM (≈ 1.82 µg/mL); MIC (Mtb. Praha 1; 504 h): 4 µM (≈ 1.82 µg/mL); MIC (Mtb. 9449/2006; 336 h): 4 µM (≈ 1.82 µg/mL); MIC (Mtb. 9449/2006; 504 h): 4 µM (≈ 1.82 µg/mL); MIC (Mtb. 7357/1988; 336 h): 8 µM (≈ 3.63 µg/mL); MIC (Mtb. 7357/1988; 504 h): 8 µM (≈ 3.63 µg/mL); MIC (Mtb. 53/2009; 336 h): 8 µM (≈ 3.63 µg/mL); MIC (Mtb. 53/2009; 504 h): 8 µM (≈ 3.63 µg/mL); MIC (Mtb. 234/2005; 336 h): 8 µM (≈ 3.63 µg/mL); MIC (Mtb. 234/2005; 504 h): 8 µM (≈ 3.63 µg/mL); MIC ([11]; 235/80, 336 h, 14 d): 4 µM (≈ 1.82 µg/mL); MIC ([11]; 235/80, 504 h, 21 d): 4 µM (≈ 1.82 µg/mL)
3 | O=C(Oc1cc(Cl)ccc1C(=O)Nc1cccc(Br)c1)c1ccc(C(F)(F)F)cc1 [1h] | < 1 µM | 4 µM (≈ 1.99 µg/mL) | 8 µM (≈ 3.99 µg/mL) | 8 µM (≈ 3.99 µg/mL) | 16 µM (≈ 7.98 µg/mL) | 0.98 µM (≈ 0.489 µg/mL) | 0.98 µM (≈ 0.489 µg/mL) | > 500 µM | > 500 µM | 31.2 µM (≈ 15.6 µg/mL) | 250 µM (≈ 125 µg/mL) | 0.49 µM (≈ 0.244 µg/mL) | 0.98 µM (≈ 0.489 µg/mL) | 0.49 µM (≈ 0.244 µg/mL) | 0.98 µM (≈ 0.489 µg/mL) | 2 µM (≈ 0.997 µg/mL) | 8 µM (≈ 3.99 µg/mL) | 8 µM (≈ 3.99 µg/mL) | ≥ 20% | 4 µM (≈ 1.99 µg/mL) | MIC ([11]; 235/80, 336 h, 14 d): 8 µM (≈ 3.99 µg/mL); MIC ([11]; 235/80, 504 h, 21 d): 8 µM (≈ 3.99 µg/mL)
